# In patent publication US10231980B2, “Cortexolone 17alpha-benzoate for use in the treatment of tumours” (COSMO TECHNOLOGIES LTD., priority 2014, dated 2019):
# Where two headings read alike, the source gives them in different places.
# How the values were obtained:
# HT29 = test: MTT colorimetric assay on epithelial intestinal cancer cells; assay type: cell-based; settings: for Therapeutic Index (TI), Resting PBMC: IC50 resting PBMC / IC50 HT29; for Therapeutic Index (TI), Stimulated PBMC: IC50 stimulated PBMC / IC50 HT29
# Protocol: The experiment was performed to test and define anticancer activity in vitro of Cortexolone 17α-benzoate and cortexolone 17α-valerate, 21-propionate on cell lines representatives of epithelial intestinal tumours, namely HT29. The experiment method consisted in: • 1. Monolayer HT-29 cells were plated in: 96-wells plates at the density of 2×10^4 cells/mL. The cells plated were kept at 37° C. in 5% CO2 and left to attach for 24 h. • 2. […] After 72 h of treatment, the MTT colorimetric assay was performed.
# MiaPaca2 (AR low) = test: ATP-dependent proliferation assay with 10 nM DHT, pancreatic cancer cells (Examples 3, 4, 7); settings: for IC50: Homo sapiens; for TI on Resting PBMC: IC50 resting PBMC / IC50 MiaPaca2; for TI on Stimulated PBMC: IC50 stimulated PBMC / IC50 MiaPaca2
# Protocol: (§1) The experimental method consisted of: • 1. […] After 24 hrs, 10 nM DHT (dihydrotestosterone) with or without anti-androgen compounds, or DMSO vehicle (negative control) was added to the cultures. • 3.
# (§2) Data from Experiment 1 were fitted through sigmoidal dose response curves and analyzed using Prizm statistical analysis software. […] The results from 2 sets of experiments follow.
# (§3) Data from Experiment 1 was fitted through sigmoidal dose response curves and analyzed using Prizm statistical analysis software.
# Panc1 (AR+) = test: as above; settings: for IC50: Homo sapiens; for TI on Resting PBMC: IC50 resting PBMC / IC50 Panc1; for TI on Stimulated PBMC: IC50 stimulated PBMC / IC50 Panc1
# Protocol: as §1, §2, §3
# BxPC3 = test: In vitro proliferation, larger panel (Example 14); settings: for IC50: Homo sapiens
# Text: (§4) Data shown in Table I were fitted through sigmoidal dose response curves and analyzed using Prizm statistical.
# PC3 (AR−) = test: ATP-dependent proliferation assay with 10 nM DHT, prostate cancer cells (Examples 1, 2); assay type: cell-based, human; settings: Homo sapiens, PC3/AR
# Protocol: (§5) The experiment was performed to test and to define the antitumor activity in vitro of cortexolone 17α-benzoate on LNCaP (AR^+) and PC3 (AR^−), representative of Prostatic cancer cell lines with Androgen receptor positive or negative expression, respectively. The experimental method consisted of: • 1. […] After 24 hrs, 10 nM DHT (dihydrotestosterone) with or without anti-androgen compounds, or DMSO vehicle (negative control) was added to the cultures. • 3.
# (§6) Data from Experiment 1 was fitted through sigmoidal dose response curves and analyzed using Prizm statistical analysis software. […] The results from 2 sets of experiments follow.
# as §5, with “define” for “define the”, “17α-valerate-21-propionate” for “17α-benzoate”, “hours,” for “hrs,”
# LNCaP (AR+) = test: as above; assay type: cell-based, human; settings: Homo sapiens, LNCaP/AR
# Protocol: as §5, §6
# as §5, with “define” for “define the”, “17α-valerate-21-propionate” for “17α-benzoate”, “hours,” for “hrs,”
# MCF7 = test: In vitro proliferation / cytotoxic assay on breast cancer cells (Examples 14, 25); settings: for IC50: Homo sapiens
# Protocol: as §4
# For the cytotoxic assay, cells were seeded in 96-well flat bottom culture plates in media containing charcoal stripped serum. After 24 hours, test compounds were added to the cells. DMSO was used as the vehicle negative control and RU486 as the positive control. After 72 hour incubation, cells were harvested and lysed to determine cell viability using the Cell Titer Glow assay.
# LNCaP = test: ATP-dependent cell viability assay (Cell Titer Glo), Example 12; settings: LNCaP; for IC50: Homo sapiens
# Text: as §4
# PC3 = test: as above; settings: for IC50: Homo sapiens
# Text: as §4
# MiaPaca2 = test: as above; settings: for IC50: Homo sapiens
# Text: as §4
# Panc1 = test: as above; settings: for IC50: Homo sapiens
# Text: as §4
# stimulated PBMC = test: IC50 on stimulated (actively dividing) PBMC; assay type: cell-based, human; settings: PBMC Stim; Table IV
# [1] = Homo sapiens, HT-29, 72 h, read-out: Inhibition (%) on HT29
# [2] = Experiment 1, 0 = higher toxicity in PBMC
structure (smiles),measurement,setting,value
"C[C@]12CCC(=O)C=C1CC[C@@H]1[C@@H]2CC[C@@]2(C)[C@H]1CC[C@]2(OC(=O)c1ccccc1)C(=O)CO [CB-03-06, cortexolone 17α-benzoate]",Therapeutic Index = IC50 resting PBMC/IC50 cancer cell,"HT29; HT29, Table IV",6
same,Therapeutic Index = IC50 stimulated PBMC/IC50 cancer cell,"HT29; HT29, Table VII",6
same,IC50,"HT29; Homo sapiens, HT-29, 72 h, read-out: IC50 Calculated",16 µM
same,inhibition at 0.8 µM,HT29; [1],-1.55%
same,inhibition at 4 µM,HT29; [1],20.4%
same,inhibition at 20 µM,HT29; [1],53.6%
same,inhibition at 100 µM,HT29; [1],92.2%
same,inhibition at 500 µM,HT29; [1],92.3%
same,IC50,"HT29; Homo sapiens, HT-29, read-out: In vitro proliferation IC50",16 µM
same,IC50,"HT29; Homo sapiens, HT-29, read-out: in vitro proliferation IC50",13 µM
same,"Therapeutic Index (TI), Resting PBMC",HT29; Experiment 1,6
same,"Therapeutic Index (TI), Resting PBMC",HT29; Experiment 2,5
same,"Therapeutic Index (TI), Stimulated PBMC",HT29; Experiment 1,7
same,"Therapeutic Index (TI), Stimulated PBMC",HT29; Experiment 2,6
same,IC50,"MiaPaca2 (AR low); MIA PaCa-2, 72 h, MiaPaca2, Experiment 1, sigmoidal dose response fit, 10 nM DHT, 3 days",23 µM
same,IC50,"MiaPaca2 (AR low); MIA PaCa-2, MiaPaca2, Example 7, Experiment 1",17 µM
same,IC50,"MiaPaca2 (AR low); MIA PaCa-2, MiaPaca2, Example 7, Experiment 2",20 µM
same,IC50,"MiaPaca2 (AR low); MIA PaCa-2, MiaPaca2, Experiment 2, nonlinear regression least squares fit, additional experiments",20 µM
same,TI on Resting PBMC,MiaPaca2 (AR low); [2],6
same,TI on Resting PBMC,MiaPaca2 (AR low); Experiment 2,4
same,TI on Stimulated PBMC,MiaPaca2 (AR low); [2],7
same,TI on Stimulated PBMC,MiaPaca2 (AR low); Experiment 2,5
same,IC50,"Panc1 (AR+); PANC-1, 72 h, Panc1, Experiment 1, sigmoidal dose response fit, 10 nM DHT, 3 days",30 µM
same,IC50,"Panc1 (AR+); PANC-1, Panc1, Example 7, Experiment 1",23 µM
same,IC50,"Panc1 (AR+); PANC-1, Panc1, Example 7, Experiment 2",28 µM
same,IC50,"Panc1 (AR+); PANC-1, Panc1, Experiment 2, nonlinear regression least squares fit, additional experiments",28 µM
same,TI on Resting PBMC,Panc1 (AR+); [2],4
same,TI on Resting PBMC,Panc1 (AR+); Experiment 2,3
same,TI on Stimulated PBMC,Panc1 (AR+); [2],5
same,TI on Stimulated PBMC,Panc1 (AR+); Experiment 2,3
same,Therapeutic Index = IC50 resting PBMC/IC50 cancer cell,"BxPC3; BxPC3, Table IV",3
same,Therapeutic Index = IC50 stimulated PBMC/IC50 cancer cell,"BxPC3; BxPC3, Table VII",3
same,IC50,"BxPC3; BXPC-3, read-out: In vitro proliferation IC50",28 µM
same,IC50,"BxPC3; BXPC-3, read-out: in vitro proliferation IC50",28 µM
same,IC50,PC3 (AR−),28 µM
same,IC50,PC3 (AR−); 72 h,29 µM
same,IC50,LNCaP (AR+),12 µM
same,IC50,LNCaP (AR+); 72 h,12 µM
same,IC50,"MCF7; MCF7, 72 h",25 µM
same,IC50,"MCF7; MCF7, read-out: In vitro proliferation IC50",25 µM
same,IC50,"MCF7; MCF7, read-out: in vitro proliferation IC50",25 µM
same,Therapeutic Index = IC50 resting PBMC/IC50 cancer cell,"MCF7; MCF7, Table IV",4
same,Therapeutic Index = IC50 stimulated PBMC/IC50 cancer cell,"MCF7; MCF7, Table VII",4
same,IC50,LNCaP; 72 h,12 µM
same,IC50,LNCaP; read-out: In vitro proliferation IC50,12 µM
same,IC50,LNCaP; read-out: in vitro proliferation IC50,12 µM
same,Therapeutic Index = IC50 resting PBMC/IC50 cancer cell,LNCaP; Table IV,8
same,Therapeutic Index = IC50 stimulated PBMC/IC50 cancer cell,LNCaP; Table VII,8
same,IC50,"PC3; PC-3, 72 h",28 µM
same,IC50,"PC3; PC-3, read-out: In vitro proliferation IC50",28 µM
same,IC50,"PC3; PC-3, read-out: in vitro proliferation IC50",28 µM
same,Therapeutic Index = IC50 resting PBMC/IC50 cancer cell,"PC3; PC3, Table IV",3
same,Therapeutic Index = IC50 stimulated PBMC/IC50 cancer cell,"PC3; PC3, Table VII",3
same,IC50,"MiaPaca2; MIA PaCa-2, 72 h",20 µM
same,IC50,"MiaPaca2; MIA PaCa-2, read-out: In vitro proliferation IC50",20 µM
same,IC50,"MiaPaca2; MIA PaCa-2, read-out: in vitro proliferation IC50",20 µM
same,Therapeutic Index = IC50 resting PBMC/IC50 cancer cell,"MiaPaca2; MiaPaca2, Table IV",5
same,Therapeutic Index = IC50 stimulated PBMC/IC50 cancer cell,"MiaPaca2; MiaPaca2, Table VII",5
same,IC50,"Panc1; PANC-1, 72 h",28 µM
same,IC50,"Panc1; PANC-1, read-out: In vitro proliferation IC50",28 µM
same,IC50,"Panc1; PANC-1, read-out: in vitro proliferation IC50",28 µM
same,Therapeutic Index = IC50 resting PBMC/IC50 cancer cell,"Panc1; Panc1, Table IV",3
same,Therapeutic Index = IC50 stimulated PBMC/IC50 cancer cell,"Panc1; Panc1, Table VII",3
same,Therapeutic Index = IC50 resting PBMC/IC50 cancer cell,stimulated PBMC,1
